The values below come from patent publication US11498920B2, “4-(1H-imidazol-5-yl)-1H-pyrrolo[2, 3-b] pyridines for use in the treatment of leukaemias, lymphomas and solid tumors” (MASARYKOVA UNIVERZITA, priority 2018, dated 2022).

Holding throughout (assay type): cell-based
For one assay, the system named is primary CLL cells. Description: Cytotoxicity, TMRE flow cytometry viability, primary CLL cells (Example II.1). The settings on record: Homo sapiens, CLL cell, 6 hours, TMRE positive cells normalized to control, ratio to PF670462, <1 = higher cytotoxicity than PF670462, read-out: Viability of cells, Compound of formula I (100 μM), relative to PF670462 (100 μM), CLL primary cells.

In assay [1] the test system is Maver-1 cells (mantle cell lymphoma). Kind of assay: Cytotoxicity, TMRE flow cytometry viability, Maver-1 cells (Example II.1). The following applies: Homo sapiens, Maver1, 24 hours, TMRE positive cells normalized to control, ratio to PF670462, <1 = higher cytotoxicity than PF670462, read-out: Viability of cells, Compound of formula I (100 μM), relative to PF670462 (100 μM), Maver-1 cells (mantle cell lymphoma).

The test system of a further assay is HEPG2. Kind of assay: Cytotoxicity on panel of cell lines, TMRE viability (Example II.2). The settings on record: Homo sapiens, 24 hours, mean, control = 1, read-out: cell viability relative to control, HEPG2 (hepatocellular carcinoma). Here is the method:
(§1) The leukemia and lymphoma-derived cell lines [MEC-1 cell line (derived from chronic lymphocytic leukemia—CLL), Nalm-16 (acute lymphocytic leukemia—ALL), K562 (chronic myeloid leukemia—CML), HL-60 (acute myeloid leukemia—AML), Maver-1 and Mino (mantle cell lymphoma—MCL), BL-41 (Burkitt lymphoma—BL), WSU-NHL (follicular lymphoma—FL), SUDHL (diffuse large B-cell lymphoma—DLBCL)], primary CLL cells and nonmalignant control primary cells were cultured in suspension in flasks under the following conditions: RPMI 1640 medium (Hyclone) supplemented with 10% fetal bovine serum (FBS, Gibco) and 1% penicillin/streptomycin (Life Technologies), 37° C., 5% CO2 and 95% relative humidity, with optimal culture cell density 5×10^6 cells/mL in case of primary cells and 0.5-1×10^6 cells/mL in case of cell lines. The adherent cell lines [A375 (derived from malignant melanoma), MDA-MB-231 and MCF-7 (breast cancer), MIA-PA-CA and PANC1 (pancreatic cancer), PC3 (prostate cancer), OVCAR4 (ovarian cancer) and HEPG2 (hepatocellular carcinoma)] were cultured on plates under the same conditions using RPMI1640 or DMEM medium (Gibco) according to instructions provided by the distributor (DSMZ/ATCC).
(§2) The tested cell lines were incubated with inhibitors at 30 μM concentration or corresponding amount of solvent (DMSO, Sigma Aldrich) in standard culture conditions, seeded as 10^5 cells/500 μl per well in a 24-well plate. Experiments were performed in technical duplicates and 2-3 biological repetitions per cell line. Viability of cells was assessed after 24 hours.
(§3) Relative values are presented as a mean value, showing ratio to the effect of control. Relative value <1=lower viability than control condition.

The next assay relates to SUDHL. Described as above. The settings on record: 24 hours, mean, control = 1, read-out: cell viability relative to control, SUDHL (DLBCL). Here is the method: as §1, §2, §3
For the next assay, the system named is PANC1. The assay is described as above. The following applies: Homo sapiens, PANC-1, 24 hours, mean, control = 1, read-out: cell viability relative to control, PANC1 (pancreatic cancer). Here is the method: as §1, §2, §3
In another assay the test system is MEC-1. The assay is described as above. The following applies: Homo sapiens, MEC1, 24 hours, mean, control = 1, read-out: cell viability relative to control, MEC-1 (CLL). The protocol: as §1, §2, §3
For the next assay, the system named is MIA-PA-CA. The description is as above. The following applies: Homo sapiens, MIA PaCa-2, 24 hours, mean, control = 1, read-out: cell viability relative to control, MIA-PA-CA (pancreatic cancer). The protocol:
as §1, §2, §3

Another assay relates to WSU-NHL. The assay is described as above. The settings on record: Homo sapiens, 24 hours, mean, control = 1, read-out: cell viability relative to control, WSU-NHL (FL). The protocol: as §1, §2, §3
Another assay relates to K562. The assay is described as above. The following applies: Homo sapiens, 24 hours, mean, control = 1, read-out: cell viability relative to control, K562 (CML). Here is the method:
as §1, §2, §3

A further assay concerns OVCAR4. The description is as above. The settings on record: Homo sapiens, OVCAR-4, 24 hours, mean, control = 1, read-out: cell viability relative to control, OVCAR4 (ovarian cancer). The protocol:
as §1, §2, §3

Another assay concerns PC3. Described as above. The following applies: Homo sapiens, PC-3, 24 hours, mean, control = 1, read-out: cell viability relative to control, PC3 (prostate cancer). The protocol:
as §1, §2, §3

The next assay relates to Nalm16. The assay is described as above. The following applies: 24 hours, mean, control = 1, read-out: cell viability relative to control, Nalm16 (ALL). The protocol: as §1, §2, §3
Another assay has as its system primary CLL. The assay is described as above. The following applies: Homo sapiens, 24 hours, mean, control = 1, read-out: cell viability relative to control, primary CLL. The protocol: as §1, §2, §3
Another assay deals with A375. The description is as above. The settings on record: Homo sapiens, A-375, 24 hours, mean, control = 1, read-out: cell viability relative to control, A375 (melanoma). Here is the method: as §1, §2, §3
A further assay deals with Maver1. The assay is described as above. The settings on record: Homo sapiens, 24 hours, mean, control = 1, read-out: cell viability relative to control, Maver1 (MCL). Here is the method:
as §1, §2, §3

In a further assay the test system is Mino. The assay is described as above. The following applies: Homo sapiens, 24 hours, mean, control = 1, read-out: cell viability relative to control, Mino (MCL). Here is the method: as §1, §2, §3
In the next assay the test system is HL60. The description is as above. The settings on record: Homo sapiens, HL-60, 24 hours, mean, control = 1, read-out: cell viability relative to control, HL60 (AML). The protocol: as §1, §2, §3
The subject of the next assay is MDA-MB-231. Described as above. The settings on record: Homo sapiens, 24 hours, mean, control = 1, read-out: cell viability relative to control, MDA-MB-231 (breast cancer). Here is the method:
as §1, §2, §3

The test system of another assay is BL-41. The description is as above. The settings on record: Homo sapiens, 24 hours, mean, control = 1, read-out: cell viability relative to control, BL-41 (BL). The protocol: as §1, §2, §3
The subject of the next assay is MCF-7. The description is as above. The following applies: Homo sapiens, MCF7, 24 hours, mean, control = 1, read-out: cell viability relative to control, MCF-7 (breast cancer). The protocol:
as §1, §2, §3

For `Cc1cc2c(-c3c(-c4ccc(F)cc4)ncn3C3CCCCC3)ccnc2[nH]1` [Preparative Example 39, 4-(1-cyclohexyl-4-(4-fluorophenyl)-1H-imidazol-5-yl)-2-methyl-1H-pyrrolo[2,3-b]pyridine], the viability at 100 µM stood at 10% in the assay on primary CLL cells and 2% in assay [1]. In addition, the viability at 30 µM in the assay with HEPG2 was 55%; with SUDHL, 24%; in the assay with PANC1, 44%; with MEC-1, 22%; in the assay with MIA-PA-CA it was 56%; with WSU-NHL it was 88%. Moreover, the viability at 30 µM amounted to 73% in the assay with K562; 42% with OVCAR4; 29% in the assay on PC3; 6% with Nalm16; 48% in the assay on primary CLL; 16% in the assay on A375. Moreover, the viability at 30 µM in the assay on Maver1 was determined as 2%; with Mino, 26%; with HL60, 62%; in the assay with MDA-MB-231 it was 71%; in the assay on BL-41, 10%.
Take `Cc1nc(-c2ccc(F)cc2)c(-c2ccnc3[nH]ccc23)n1C1CCCCC1` [Preparative Example 61, 4-(1-cyclohexyl-4-(4-fluorophenyl)-2-methyl-1H-imidazol-5-yl)-1H-pyrrolo[2,3-b]pyridine]: the figures for the viability at 100 µM (in the assay with primary CLL cells; in assay [1]) were 35% and 2%, respectively. The viability at 30 µM was found to be 60% in the assay with HEPG2; 24% with SUDHL; 81% in the assay on PANC1; 41% in the assay with MEC-1; 58% with MIA-PA-CA; 80% in the assay on K562. Besides, the viability at 30 µM in the assay on MCF-7 is 39%; in the assay with OVCAR4, 77%; in the assay on PC3, 71%; with Nalm16, 6%; with primary CLL, 70%; with A375, 20%. The viability at 30 µM turned out to be 52% in the assay with Maver1; 28% in the assay on Mino; 63% with HL60; 46% in the assay with MDA-MB-231; 22% with BL-41.
With `Fc1ccc(-c2nc(I)n(C3CCCCC3)c2-c2ccnc3[nH]ccc23)cc1` [Preparative Example 95, 4-(1-cyclohexyl-4-(4-fluorophenyl)-2-iodo-1H-imidazol-5-yl)-1H-pyrrolo[2,3-b]pyridine], the values for the viability at 100 µM (in the assay on primary CLL cells; in assay [1]) were 2% and 1%, respectively. Besides, the viability at 30 µM in the assay on HEPG2 was determined as 5%; in the assay on SUDHL it was 0%; with PANC1 it was 10%; in the assay on MEC-1, 0%; with MIA-PA-CA, 1%; with WSU-NHL, 0%. Also, the viability at 30 µM is 1% with K562; 1% in the assay on MCF-7; 7% in the assay on OVCAR4; 1% in the assay with PC3; 2% in the assay on primary CLL; 16% in the assay on A375. Moreover, the viability at 30 µM with Maver1 turned out to be 1%; in the assay on Mino, 0%; in the assay on HL60, 2%; in the assay on MDA-MB-231 it was 2%; with BL-41, 0%.
On to `C=CS(=O)(=O)N[C@H]1CC[C@@H](n2cnc(-c3ccc(F)cc3)c2-c2ccnc3[nH]ccc23)CC1` [Preparative Example 97], for which the viability at 100 µM stood at 18% in the assay on primary CLL cells and 1% in assay [1]. The viability at 30 µM in the assay on HEPG2 stood at 39%; in the assay on SUDHL it was 68%; in the assay with PANC1, 50%; in the assay on MEC-1 it was 1%; in the assay with MIA-PA-CA, 23%; in the assay on WSU-NHL it was 2%. For the same compound, the viability at 30 µM came to 28% in the assay on MCF-7; 78% in the assay with OVCAR4; 74% in the assay with PC3; 51% in the assay on primary CLL; 17% in the assay on A375; 1% in the assay with Maver1. In addition, the viability at 30 µM was determined as 0% with Mino, 68% with HL60, 53% in the assay on MDA-MB-231 and 11% with BL-41.
Turning to `Fc1ccc(-c2ncn(Cc3ccccc3)c2-c2ccnc3[nH]ccc23)cc1Cl` [Preparative Example 140, 4-(1-benzyl-4-(3-chloro-4-fluorophenyl)-1H-imidazol-5-yl)-1H-pyrrolo[2,3-b]pyridine], the viability at 100 µM turned out to be 1% with primary CLL cells and 0% in assay [1]. The viability at 30 µM with HEPG2 worked out at 22%; in the assay on SUDHL, 11%; in the assay with PANC1 it was 77%; with MEC-1, 67%; in the assay on MIA-PA-CA it was 29%; in the assay on WSU-NHL it was 56%. For the same compound, the viability at 30 µM was 43% with MCF-7; 87% in the assay with OVCAR4; 67% in the assay on PC3; 60% in the assay on primary CLL; 80% in the assay with A375; 7% in the assay on Maver1. For the same compound, the viability at 30 µM was 3% in the assay on Mino, 78% with HL60, 86% in the assay with MDA-MB-231 and 44% in the assay with BL-41.
Regarding `Fc1ccc(-c2ncn(C3CCCCC3)c2-c2c(F)cnc3[nH]ccc23)cc1` [Preparative Example 147, 4-(1-cyclohexyl-4-(4-fluorophenyl)-1H-imidazol-5-yl)-5-fluoro-1H-pyrrolo[2,3-b]pyridine], the results for the viability at 100 µM (in the assay on primary CLL cells; in [1]) were 8% and 3%, respectively. Also, the viability at 30 µM was found to be 41% in the assay on HEPG2; 1% with SUDHL; 67% with PANC1; 38% in the assay on MEC-1; 45% with MIA-PA-CA; 38% in the assay with WSU-NHL. For the same compound, the viability at 30 µM is 41% in the assay with MCF-7; 69% in the assay on OVCAR4; 57% in the assay with PC3; 37% with primary CLL; 85% in the assay on A375; 0% with Maver1. For the same compound, the viability at 30 µM with Mino worked out at 1%; with HL60, 84%; in the assay on BL-41 it was 21%.
